Reference: patent US20040248099A1, “Use of intermediate -conductance potassium channels and modulators for diagnosing and treating diseases having disturbed keratinocyte activity” (priority 2000, published 2004)
Entries after “also recorded” stand apart in the source; their conditions may differ.

Key:
HaCaT keratinocytes [1] = experiment: Patch-clamp recording of the membrane potential of HaCaT keratinocytes (current clamp; ATP-induced response); assay type: cell-based, human; conditions: for blockers leading to a comparable depolarization on a plateau during treatment with ATP: other K+ channel blockers tested
Procedure: In order to identify an ion channel which is substantially involved in the transduction of wound healing-specific signals, HaCaT cells were investigated electrophysiologically. The HaCaT keratinocytes were propagated in DEM containing 10% FCS (Gibco BRL) to which antibiotics (penicillin/streptomycin, 100 U/ml) had been added. […] The patch pipettes were prepared from small borosilicate tubes on a horizontal pulling device (DMZ, Zeitz) using the two-step pulling method. […] The resistance of these patch pipettes was 5-8 GΩ in the bath. After a seal in the GΩ range had been produced (typically 1.5-2 GΩ) the amplifier was switched to current clamp mode. […] The electrophysiological signals were recorded, amplified and digitalized using an Axopatch 200 amplifier in combination with a TL-1 Labmaster Interface and AXOTAPE software (Axon Instruments). The statistical analysis (one-way ANOVA with Bonferri post-test comparison) was carried out using Graphpad prism 2.0. […]
The inflow of liquid was gravity-dependent and was controlled by means of magnetic valves. Outflow was effected by applying a negative pressure using a vacuum pump. Substances were added, while observing visually, directly into the keratinocytes under investigation using a remotely controlled, magnet-controlled Y tube system (diameter of the efflux tube: 100 μm).
The electrophysiological recordings were carried out, using perforated patches, on HaCaT cells which had grown into a confluent monolayer.

HaCaT keratinocytes [2] = experiment: Proliferation of subconfluent HaCaT keratinocytes, number of cells per well determined daily; assay type: cell-based, human; conditions: n=3
Procedure: In order to investigate the effect of the hIK1 channel inhibitors clotrimazole and charybdotoxin, either 10 μM clotrimazole, 200 nM charybdotoxin (ChTx) or 1 mM 1-EBIO were/was added to cells which were growing subconfluently and the number of cells per well was determined daily.

HaCaT keratinocytes [3] = experiment: BrDU incorporation cell proliferation ELISA in HaCaT keratinocytes
Procedure: The influence of activators of IK1 on proliferation was investigated using 1-EBIO and zolxazolamine (see above). Firstly, the influence of different concentrations of 1-EBIO on the growth rate of HaCaT cells was measured in the presence and in the absence of serum. For this purpose, 1×10^4 HaCaT cells per well were cultured in keratinocyte growth medium (KGM) for 5 days in a 96-well plate, in order to synchronize the cell cycle, with this being followed by a two-day incubation in the presence of different concentrations of 1-EBIO in KGM (see FIGS. 7 and 8) in the absence (FIG. 7) and in the presence (FIG. 8) of serum. […] 1% DMSO in KGM served as the solvent control. Cell proliferation was measured by the incorporation of bromodideoxyuridine (BrDU) while cell division was measured in accordance with the manufacturer's instructions (‘The Cell Proliferation ELISA, BrDU, Roche). The incorporation of BrDU was quantified by determining the absorption at 450 nm. In FIGS. 7 and 8, the absorption (A[450 nm]) is in each case plotted on the Y axis as a measure of the proliferation rate. Greater absorption reflects greater proliferation.

HaCaT cells [4] = experiment: Immunoblotting of the differentiation markers involucrin, keratin 1 and keratin 10; assay type: cell-based, human; conditions: 1-EBIO 1, 100, 1000 μM, 4 days; dose-dependent
Procedure: For this, 5×10^5 HaCaT cells per well were grown in medium in a 6-well plate. […] 1% DMSO in medium was used as the solvent control (lane ‘C’). The cells were incubated for 4 days, with the medium being replaced daily. After 4 days, the protein concentration in the cell lysates was determined (BCA Assay, Pierce). Immunoblotting was then used to compare equal quantities of protein from the different lysates with the keratinocyte differentiation markers involucrin (1:500, Sigma) and keratin 1 and 10 (1:250, Progen) (FIG. 6).

HaCaT cells [5] = experiment: Keratinocyte differentiation by immunostaining with anti-K10 antibody; assay type: cell-based, human; conditions: 1-EBIO 1 mM, 3 days

With `CC[N+](CC)(CC)CC` [TEA] the “blockers leading to a comparable depolarization on a plateau during treatment with ATP” value (HaCaT keratinocytes [1]) was “None”.
`CCn1c(=O)[nH]c2cc(Cl)c(Cl)cc21` [DCEBIO, 5,6-dichloro-1-ethyl-1,3-dihydro-2H-benzimidazol-2-one] was tested, and the “concentration for the same electrophysiological effect as 1-EBIO, times less concentrated” value (HaCaT keratinocytes [1]; HaCaT cells) was 300-1000 times.
With `Clc1ccccc1C(c1ccccc1)(c1ccccc1)n1ccnc1` [clotrimazole] the influence on proliferation (HaCaT keratinocytes [2]; clotrimazole 10 μM) was “complete inhibition”, the influence on proliferation (HaCaT keratinocytes [2]; clotrimazole 10 μM, listed as Clotrimazole) was “inhibited proliferation completely” and the “effect on the ATP-induced electrophysiological response, compared with 100 nM ChTx” value (HaCaT keratinocytes [1]; clotrimazole 1 μM prior to ATP, n=3) was “The same effect”.
`NCCc1c[nH]cn1` [histamine] was tested, and the “electrophysiological response compared with ATP” value (HaCaT keratinocytes [1]; histamine 100 μM, n=4) was “practically identical quantitatively and kinetically”.
“charybdotoxin (QFTNVSCTTSKECWSVCQRLHNTSRGKCMNKKCRCYS)” was tested, and the influence on proliferation (HaCaT keratinocytes [2]; charybdotoxin 200 nM) was “retarded proliferation; also recorded: growth which was only retarded”, the “effect on the established ATP-mediated hyperpolarization” value (HaCaT keratinocytes [1]; ChTx 100 nM added after ATP, ATP still present, n=2) was “complete reversal of the hyperpolarization” and the “effect on the ATP-induced electrophysiological response” value (HaCaT keratinocytes [1]; ChTx 100 nM prior to ATP, n=4, potential stayed on a depolarized plateau) was “completely prevented repolarization”. The “effect on the ATP-induced electrophysiological response” value (HaCaT keratinocytes [1]; ChTx 10-100 nM prior to ATP, n=15) was “retarded repolarization of the rapid depolarization and prevented hyperpolarization” and the “inhibition of the ATP-mediated hyperpolarization” value (HaCaT keratinocytes [1]; charybdotoxin at various concentrations prior to ATP) was “dose-dependent inhibition”.
`CCCCCCCCCCCCCC(=O)O[C@@H]1[C@@H](C)[C@@]2(O)[C@@H](C=C(CO)C[C@]3(O)C(=O)C(C)=C[C@@H]23)[C@@H]2C(C)(C)[C@]12OC(C)=O` [PMA] was tested, and the “influence on the effect of ATP” value (HaCaT keratinocytes [1]) was “no influence”.
`CCn1c(=O)[nH]c2ccccc21` [1-EBIO, 1-ethyl-2-benzimidazolinone] was tested, and the “cell morphology and apoptosis under activator” value (HaCaT keratinocytes [3]) was “no sign of apoptosis”, the “concentration of strongest inhibition of serum-induced proliferation” value (HaCaT keratinocytes [3]; 10% FCS) was 1 mM and the “dose dependence of the inhibition of serum-induced proliferation” value (HaCaT keratinocytes [3]; 10% FCS) was “dose-dependent”. For the same compound, the “effect on serum-induced proliferation (BrDU incorporation)” value (HaCaT keratinocytes [3]; 10% FCS, different concentrations of 1-EBIO, two-day incubation) was “inhibit serum-induced proliferation”, the “stimulation of cell proliferation (BrDU incorporation)” value (HaCaT keratinocytes [3]; absence of serum, different concentrations of 1-EBIO, two-day incubation) was “not on their own able to stimulate cell proliferation” and the influence on proliferation (HaCaT keratinocytes [2]; 1-EBIO 1 mM) was “inhibited proliferation completely; also recorded: complete inhibition”. The “membrane potential (rapid and powerful hyperpolarization to)” value (HaCaT keratinocytes [1]; 1-EBIO 1 mM, n=3) was −83±3 mV, the “transient depolarization on adding ATP, compared with controlled conditions” value (HaCaT keratinocytes [1]; ATP 10 μM in the presence of 1-EBIO 1 mM) was “much stronger” and the “effect on differentiation (involucrin, K1, K10 protein)” value (HaCaT cells [4]) was “inhibit differentiation”. The “proportion of K10-stained (partially differentiated) cells versus control cells” value (HaCaT cells [5]) was “signficantly reduced”.
`[Ba+2]` [Ba^2+] was tested, and the “blockers leading to a comparable depolarization on a plateau during treatment with ATP” value (HaCaT keratinocytes [1]) was “None”.
`Nc1ncnc2c1ncn2[C@@H]1O[C@H](COP(=O)(O)OP(=O)(O)OP(=O)(O)O)[C@@H](O)[C@H]1O` [ATP] was tested, and the “reversibility of the hyperpolarization” value (HaCaT keratinocytes [1]; 1 μM ATP, n=9) was “could be reversed rapidly by washing out”, the hyperpolarization (HaCaT keratinocytes [1]; 10 μM ATP, n=28) was 30±2 mV and the “change in the membrane potential on perfusion” value (HaCaT keratinocytes [1]; ATP 1-1000 μM, transient depolarization followed by long-lasting hyperpolarization) was “biphasic change in the membrane potential”. For the same compound, the “duration of the strong hyperpolarization after addition” value (HaCaT keratinocytes [1]; ATP concentrations of ≧10 μM) was “at least 5 min”.
With calphostin C the “effect on the ATP-mediated change in voltage” value (HaCaT keratinocytes [1]; calphostin C 50 nM) was “no effect”.
